In general, IC50 refers to the concentration that inhibits the measured activity by half.

SMILES strings stand for the structures. A value given as a limit tells only on which side of the number the result lay.

One series deals with 15-PGDH/HPGD (Homo sapiens (Human), UniProt P15428). The series is described as follows: hPGDH inhibitor screening biochemical assay. Particulars: read-out: hPGDH: Average IC50. In a few lines: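 Recombinant human 15-PGDH (10 nM) pre-incubated with compounds 10 min at 37 °C, then 15 μM PGE2 and 0.25 mM NAD+ added for 10 min at room temperature in 50 mM Tris-HCl pH 7.5, 0.01% Tween 20. NADH fluorescence read at ex/em 340/485 nm. IC50 from 10-point curves, four-parameter fit versus 1% DMSO.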

Series [1] can be described thus: Liver microsome stability assay (RLM). The series is classed as in vitro ADME. Particulars: rat liver microsomes. How it is done:
(§1) A microsomal mixture (microsomes and Kphos buffer) was prepared at a concentration of 1.428 mg/mL in 2 mL tubes. To this microsomal mixture 1.6 μL (1 mM) of test compound and positive control were spiked; from this mixture, 70 μL was transferred to 96 well plate and pre-incubated at 37° C. for 5 min. After pre-incubation, the zero minute time point reaction was stopped using 100 μL of ice-cold acetonitrile containing internal standard and […] (3.33 mM in Kphos buffer) was added. The 45 minute time point reaction was initiated by addition of 30 μL of NADPH (3.33 mM in Kphos buffer) and incubated at 37° C. for 15 and 45 min. Reactions without NADPH and buffer controls (minus NADPH) at 0, 15, and 45 minutes were also incubated to rule out non-NADPH metabolism or chemical instability in the incubation buffer. Incubation reactions were stopped with 100 μL of ice-cold acetonitrile containing internal standard. The plates were centrifuged at 4000 RPM for 15 min and 100 μL aliquots were submitted for analysis by LC-MS/MS. (Verapamil in human liver microsomes (HLM) and rat liver microsomes (RLM) was used as positive controls. Imipramine in mouse liver microsomes (MLM) was used as a positive control.) Samples were monitored for parent compound disappearance in MRM mode (multiple reaction monitoring) using LC-MS/MS. The peak area ratios of analyte versus internal standard were used to calculate the % remaining at the end of 45 minutes in the presence of NADPH.
Background: Microsomes from liver hold many membrane-bound enzymes, among them those of drug oxidation.

The nature of series [2]: Liver microsome stability assay (MLM). The series is classed as in vitro ADME. The settings on record: mouse liver microsomes. How it is done:
as §1

Chain of 15-PGDH/HPGD (P15428 whole entry): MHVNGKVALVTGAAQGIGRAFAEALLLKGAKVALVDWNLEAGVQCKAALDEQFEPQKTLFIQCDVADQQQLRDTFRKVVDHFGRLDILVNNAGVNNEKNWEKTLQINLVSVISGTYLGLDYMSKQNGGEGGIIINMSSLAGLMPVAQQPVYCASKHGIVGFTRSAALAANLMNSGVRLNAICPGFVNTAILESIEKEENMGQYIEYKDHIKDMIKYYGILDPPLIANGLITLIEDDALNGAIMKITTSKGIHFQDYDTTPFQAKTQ

With `COc1ccc(-n2ccc3cc(C(=O)N4CCC(F)CC4)ccc32)cc1` [MF-DH-189], the half-inhibitory concentration (IC50) on 15-PGDH/HPGD was under 0.1 µM. The “RLM + NADPH (% remaining at 45 min)” value in series [1] amounted to 23%.

In the case of `CCc1nc2cc(C(=O)N3CCC(F)CC3)ccc2n1-c1ccc(OC)cc1` [MF-DH-193], the IC50 on 15-PGDH/HPGD was under 0.1 µM. Moreover, the “RLM + NADPH (% remaining at 45 min)” value in series [1] was determined as 0%.

Turning to `COc1ccc(-n2ncc3cc(C(=O)N4CCCCC4)ccc32)cc1` [MF-DH-245], the IC50 on 15-PGDH/HPGD was under 0.1 µM. In addition, in series [1], the “RLM + NADPH (% remaining at 45 min)” value is reported as 16%.

Turning to `O=C(c1cnc2c(c1)ncn2-c1ccc(OC(F)(F)F)cc1)N1CCCCC1` [MF-DH-219], the IC50 on 15-PGDH/HPGD was under 0.1 µM. Besides, the “RLM + NADPH (% remaining at 45 min)” value in series [1] came to 26%.

As for `CCOc1ccc(-n2cnc3cc(C(=O)N4CCCCC4)cnc32)cc1` [MF-DH-225], the IC50 on 15-PGDH/HPGD is under 0.1 µM. Further, the “RLM + NADPH (% remaining at 45 min)” value in series [1] worked out at 40%.

For `COc1ccc(-n2nc(Cl)c3cc(C(=O)N4CCCCC4)ccc32)cc1` [MF-DH-247], the 50% inhibitory concentration (IC50) on 15-PGDH/HPGD lay within 0.1 to 1 µM. Besides, the “RLM + NADPH (% remaining at 45 min)” value in series [1] is 22%.

Turning to `O=C(c1cnc2c(c1)ncn2-c1ccc(F)c(F)c1)N1CCCCC1` [MF-DH-217], the half-inhibitory concentration (IC50) at 15-PGDH/HPGD was under 0.1 µM. Moreover, the “RLM + NADPH (% remaining at 45 min)” value in series [1] is reported as 34%.

As for `O=C(c1cnc2c(c1)ncn2-c1cccc(OC(F)F)c1)N1CCC(F)CC1` [MF-DH-228], the IC50 at 15-PGDH/HPGD is 0.1 to 1 µM. Moreover, the “RLM + NADPH (% remaining at 45 min)” value in series [1] is 69%.

For `COc1ccc(-n2c(C)nc3cc(C(=O)N4CCC(F)CC4)ccc32)cc1` [MF-DH-187], the half-inhibitory concentration (IC50) on 15-PGDH/HPGD was under 0.1 µM. Moreover, in series [1], the “RLM + NADPH (% remaining at 45 min)” value was determined as 17%.

With `O=C(c1cnc2c(c1)ncn2-c1cccc(OC(F)(F)F)c1)N1CCCCC1` [MF-DH-227], the IC50 at 15-PGDH/HPGD lay in the range of 0.1 to 1 µM. Besides, in series [1], the “RLM + NADPH (% remaining at 45 min)” value was found to be 48%.

As for `O=C(c1cnc2c(c1)ncn2-c1ccc(F)cc1)N1CCCCC1` [MF-DH-215], the half-maximal inhibitory concentration (IC50) at 15-PGDH/HPGD is under 0.1 µM. In series [1], the “RLM + NADPH (% remaining at 45 min)” value was found to be 45%.

With `O=C(c1cnc2c(c1)ncn2-c1ccc(OC(F)(F)F)cc1)N1CCC(F)CC1` [MF-DH-218], the IC50 on 15-PGDH/HPGD fell in the range of 0.1 to 1 µM. In addition, the “RLM + NADPH (% remaining at 45 min)” value in series [1] came out at 34%.

As for `COCCc1nc2cc(C(=O)N3CCCCC3)cnc2n1-c1ccc(OC)cc1` [MF-DH-267], the IC50 at 15-PGDH/HPGD was 0.1 to 1 µM. Also, the “RLM + NADPH (% remaining at 45 min)” value in series [1] is listed as 67%.

As for `O=C(c1cnc2c(ccn2-c2ccc3c(c2)OC(F)(F)O3)c1)N1CCCCC1` [MF-DH-249], the IC50 at 15-PGDH/HPGD is under 0.1 µM. Further, the “RLM + NADPH (% remaining at 45 min)” value in series [1] turned out to be 29%.

As to `COc1ccc(-n2nc(Cl)c3cc(C(=O)N4CCC(F)CC4)ccc32)cc1` [MF-DH-246], the IC50 at 15-PGDH/HPGD is 0.1 to 1 µM. In addition, the “RLM + NADPH (% remaining at 45 min)” value in series [1] turned out to be 46%.

Turning to `O=C(c1cnc2c(c1)ncn2-c1ccc(F)c(F)c1)N1CCC(F)CC1` [MF-DH-216], the IC50 on 15-PGDH/HPGD lay in the range of 0.1 to 1 µM. Further, in series [1], the “RLM + NADPH (% remaining at 45 min)” value was 64%.

As for `CC(C)(C)NC(=O)c1cncc(-n2ccc3cc(C(=O)N4CCC(F)(F)CC4)cnc32)c1` [MF-DH-448, N-(tert-butyl)-5-(5-(4,4-difluoropiperidine-1-carbonyl)-1H-pyrrolo[2,3-b]pyridin-1-yl)nicotinamide], the concentration for half-maximal inhibition (IC50) at 15-PGDH/HPGD was under 0.1 µM. In series [2], the “MLM + NADPH (% remaining at 45 min)” value was found to be 79%.

As for `COc1ccc(-n2cc(C)c3cc(C(=O)N4CCC(F)CC4)ccc32)cc1` [MF-DH-190, (4-fluoropiperidin-1-yl)(1-(4-methoxyphenyl)-3-methyl-1H-indol-5-yl)methanone], on 15-PGDH/HPGD, the IC50 is under 0.1 µM. Further, in series [1], the “RLM + NADPH (% remaining at 45 min)” value turned out to be 29%.

On to `COc1ccc(-n2c(C)nc3cc(C(=O)N4CCCCC4)ccc32)cc1` [MF-DH-206], for which, at 15-PGDH/HPGD, the half-maximal inhibitory concentration (IC50) was under 0.1 µM. Moreover, the “RLM + NADPH (% remaining at 45 min)” value in series [1] is 9%.

Consider `NCCNC(=O)c1ccc(-n2ccc3cc(C(=O)N4CCC(F)(F)CC4)cnc32)cc1` [MF-DH-411, N-(2-aminoethyl)-4-(5-(4,4-difluoropiperidine-1-carbonyl)-1H-pyrrolo[2,3-b]pyridin-1-yl)benzamide], for which, on 15-PGDH/HPGD, the IC50 was under 0.1 µM. Further, the “MLM + NADPH (% remaining at 45 min)” value in series [2] is reported as 87%.

Turning to `CS(=O)(=O)NC(=O)c1ccc(-n2ccc3cc(C(=O)N4CCC(F)(F)CC4)cnc32)cc1` [MF-DH-428, 4-(5-(4,4-difluoropiperidine-1-carbonyl)-1H-pyrrolo[2,3-b]pyridin-1-yl)-N-(methylsulfonyl)benzamide], the IC50 on 15-PGDH/HPGD was under 0.1 µM. In addition, the “MLM + NADPH (% remaining at 45 min)” value in series [2] is on record as 97%.

Turning to `CC(C)(C)CNC(=O)c1ccc(-n2ccc3cc(C(=O)N4CCC(F)(F)CC4)cnc32)cn1` [MF-DH-438, 5-(5-(4,4-difluoropiperidine-1-carbonyl)-1H-pyrrolo[2,3-b]pyridin-1-yl)-N-neopentylpicolinamide], on 15-PGDH/HPGD, the concentration for half-maximal inhibition (IC50) is under 0.1 µM. Also, the “MLM + NADPH (% remaining at 45 min)” value in series [2] came to 63%.

As to `CC1(C)NC(=O)N(c2ccc(-n3ccc4cc(C(=O)N5CCC(F)(F)CC5)cnc43)cn2)C1=O` [MF-DH-457], the IC50 at 15-PGDH/HPGD is under 0.1 µM. Further, the “MLM + NADPH (% remaining at 45 min)” value in series [2] was determined as 87%.

As for `O=C(NC1(C(=O)O)CC1)c1ccc(-n2ccc3cc(C(=O)N4CCC(F)(F)CC4)cnc32)cc1` [MF-DH-429], the IC50 on 15-PGDH/HPGD is under 0.1 µM. For the same compound, the “MLM + NADPH (% remaining at 45 min)” value in series [2] came out at 97%.

Take `O=C(c1cnc2c(c1)ncn2-c1ccc(OC(F)F)cc1)N1CCCCC1` [MF-DH-223]: the IC50 on 15-PGDH/HPGD is under 0.1 µM. Moreover, in series [1], the “RLM + NADPH (% remaining at 45 min)” value amounted to 74%.

With `CCC(CC)n1cnc2cc(C(=O)N3CCCCC3)ccc21` [MF-DH-237], the IC50 at 15-PGDH/HPGD was under 0.1 µM. The “RLM + NADPH (% remaining at 45 min)” value in series [1] is recorded as 0%.

For the compound `COc1ccc(-n2nnc3cc(C(=O)N4CCCCC4)ccc32)cc1` [MF-DH-243, (1-(4-methoxyphenyl)-1H-benzo[d][1,2,3]triazol-5-yl)(piperidin-1-yl)methanone], the IC50 at 15-PGDH/HPGD was under 0.1 µM. In addition, the “RLM + NADPH (% remaining at 45 min)” value in series [1] stood at 34%.

Take `O=C(c1cnc2c(c1)ncn2-c1cccc(OC(F)F)c1)N1CCCCC1` [MF-DH-229]: at 15-PGDH/HPGD, the concentration for half-maximal inhibition (IC50) fell in the range of 0.1 to 1 µM. Further, the “RLM + NADPH (% remaining at 45 min)” value in series [1] came out at 39%.

Take `O=C(c1cnc2c(ccn2-c2cncc(-c3nc[nH]n3)c2)c1)N1CCC(F)(F)CC1` [MF-DH-516, (1-(5-(1H-1,2,4-triazol-3-yl)pyridin-3-yl)-1H-pyrrolo[2,3-b]pyridin-5-yl)(4,4-difluoropiperidin-1-yl)methanone]: the IC50 on 15-PGDH/HPGD is under 0.1 µM. Further, the “MLM + NADPH (% remaining at 45 min)” value in series [2] amounted to 88%.

Regarding `COc1ccc(-n2c(CCC(F)(F)F)nc3cc(C(=O)N4CCCCC4)cnc32)cc1` [MF-DH-268], the IC50 on 15-PGDH/HPGD was in the range of 0.1 to 1 µM. Moreover, the “RLM + NADPH (% remaining at 45 min)” value in series [1] came out at 60%.

Turning to `CCC(CC)n1cnc2cc(C(=O)N3CCC(F)CC3)cnc21` [MF-DH-201], the IC50 at 15-PGDH/HPGD was at least 1 µM. Further, the “RLM + NADPH (% remaining at 45 min)” value in series [1] amounted to 48%.

`CCOC(=O)Nc1cncc(-n2ccc3cc(C(=O)N4CCC(F)(F)CC4)cnc32)c1` [MF-DH-485, ethyl (5-(5-(4,4-difluoropiperidine-1-carbonyl)-1H-pyrrolo[2,3-b]pyridin-1-yl)pyridin-3-yl)carbamate]: the IC50 on 15-PGDH/HPGD was under 0.1 µM. In series [2], the “MLM + NADPH (% remaining at 45 min)” value was determined as 80%.

As to `CC(C)(O)CCc1cc2cc(C(=O)N3CCC(F)(F)CC3)cnc2n1-c1ccc(C(=O)O)cc1` [MF-DH-538, 4-(5-(4,4-difluoropiperidine-1-carbonyl)-2-(3-hydroxy-3-methylbutyl)-1H-pyrrolo[2,3-b]pyridin-1-yl)benzoic acid], the concentration for half-maximal inhibition (IC50) at 15-PGDH/HPGD was under 0.1 µM. Further, the “MLM + NADPH (% remaining at 45 min)” value in series [2] was determined as 91%.

The values above are taken from US11345702B1 (Myoforte Therapeutics, Inc., priority 2020, dated 2022).
